≈ marks a conversion by molar mass, not a printed value.
Assays:
Type in all cases: functional
Candida albicans [1] = assay: Antifungal activity against Candida albicans strain 17 assessed as reduction in fungal growth incubated for 72 hrs by CLSI protocol based broth microdilution method
Candida albicans [2] = assay: Antifungal activity against Candida albicans SC5314 assessed as reduction in fungal growth incubated for 72 hrs by CLSI protocol based broth microdilution method
Candida albicans [3] = assay: Antifungal activity against Candida albicans strain CaR assessed as reduction in fungal growth incubated for 72 hrs by CLSI protocol based broth microdilution method
Candida albicans [4] = assay: Antifungal activity against Candida albicans strain 632 assessed as reduction in fungal growth incubated for 72 hrs by CLSI protocol based broth microdilution method
Candida albicans [5] = assay: Antifungal activity against Candida albicans strain 904 assessed as reduction in fungal growth incubated for 72 hrs by CLSI protocol based broth microdilution method
Aspergillus fumigatus = assay: Antifungal activity against Aspergillus fumigatus KM8001 assessed as reduction in fungal growth incubated for 72 hrs by CLSI protocol based broth microdilution method
Candida tropicalis = assay: Antifungal activity against Candida tropicalis ATCC 1369 assessed as reduction in fungal growth incubated for 72 hrs by CLSI protocol based broth microdilution method
Pichia kudriavzevii = assay: Antifungal activity against Candida krusei ATCC 6258 assessed as reduction in fungal growth incubated for 72 hrs by CLSI protocol based broth microdilution method
Candida albicans [6] = assay: Antifungal activity against Candida albicans strain 901 assessed as reduction in fungal growth incubated for 72 hrs by CLSI protocol based broth microdilution method
Nakaseomyces glabratus = assay: Antifungal activity against Candida glabrata ATCC 0001 assessed as reduction in fungal growth incubated for 72 hrs by CLSI protocol based broth microdilution method

MIC50 (Candida albicans [1]) | MIC50 (Candida albicans [2]) | MIC50 (Candida albicans [3]) | MIC50 (Candida albicans [4]) | MIC50 (Candida albicans [5]) | MIC50 (Aspergillus fumigatus) | MIC50 (Candida tropicalis) | MIC50 (Pichia kudriavzevii) | MIC50 (Candida albicans [6]) | MIC50 (Nakaseomyces glabratus) | SMILES
4 µg/mL (≈ 10.9 µM) | 0.125 µg/mL (≈ 0.34 µM) | 4 µg/mL (≈ 10.9 µM) | > 8 µg/mL | > 8 µg/mL | 2 µg/mL (≈ 5.44 µM) | 0.25 µg/mL (≈ 0.68 µM) | 0.125 µg/mL (≈ 0.34 µM) | 4 µg/mL (≈ 10.9 µM) | 0.5 µg/mL (≈ 1.36 µM) | O=C(/C=C/c1cccc2ccccc12)NC(Cn1ccnc1)c1ccccc1 (configuration not stated)
– | 0.5 µg/mL (≈ 1.35 µM) | – | – | – | 4 µg/mL (≈ 10.8 µM) | 0.5 µg/mL (≈ 1.35 µM) | 0.25 µg/mL (≈ 0.677 µM) | – | 1 µg/mL (≈ 2.71 µM) | O=C(NC(Cn1ccnc1)C(=O)c1ccccc1)c1cccc2ccccc12 (configuration not stated)
– | 0.25 µg/mL (≈ 0.73 µM) | – | – | – | > 8 µg/mL | 0.125 µg/mL (≈ 0.365 µM) | 0.5 µg/mL (≈ 1.46 µM) | – | 2 µg/mL (≈ 5.84 µM) | O=C(NC(Cn1cncn1)c1ccccc1)c1cccc2ccccc12 (configuration not stated)
– | 4 µg/mL (≈ 9.49 µM) | – | – | – | > 8 µg/mL | 0.5 µg/mL (≈ 1.19 µM) | 2 µg/mL (≈ 4.74 µM) | – | 2 µg/mL (≈ 4.74 µM) | O=C(/C=C/c1cccc2ccccc12)NC(C(=O)NCc1cccnc1)c1ccccc1 (configuration not stated)
– | 0.25 µg/mL (≈ 0.631 µM) | – | – | – | 4 µg/mL (≈ 10.1 µM) | 0.125 µg/mL (≈ 0.315 µM) | 0.5 µg/mL (≈ 1.26 µM) | – | 0.25 µg/mL (≈ 0.631 µM) | O=C(/C=C/c1cccc2ccccc12)NC(Cn1cncn1)C(=O)c1ccccc1 (configuration not stated)
– | 0.5 µg/mL (≈ 1.46 µM) | – | – | – | 4 µg/mL (≈ 11.7 µM) | 0.5 µg/mL (≈ 1.46 µM) | 0.5 µg/mL (≈ 1.46 µM) | – | 1 µg/mL (≈ 2.92 µM) | O=C(NC(Cn1cncn1)c1ccccc1)c1ccc2ccccc2c1 (configuration not stated)

Further lines, the compound ahead of its results:

SMILES | MIC50 (Candida albicans [1]) | MIC50 (Candida albicans [2]) | MIC50 (Candida albicans [3]) | MIC50 (Candida albicans [4]) | MIC50 (Candida albicans [5]) | MIC50 (Aspergillus fumigatus) | MIC50 (Candida tropicalis) | MIC50 (Pichia kudriavzevii) | MIC50 (Candida albicans [6]) | MIC50 (Nakaseomyces glabratus)
O=C(/C=C/c1cccc2ccccc12)NC(C(=O)NCc1ccncc1)c1ccccc1 (configuration not stated) | – | 2 µg/mL (≈ 4.74 µM) | – | – | – | > 8 µg/mL | 2 µg/mL (≈ 4.74 µM) | 4 µg/mL (≈ 9.49 µM) | – | 0.5 µg/mL (≈ 1.19 µM)
O=C(/C=C/c1ccc2ccccc2c1)NC(Cn1ccnc1)C(=O)c1ccccc1 (configuration not stated) | – | 0.5 µg/mL (≈ 1.26 µM) | – | – | – | > 8 µg/mL | 0.25 µg/mL (≈ 0.632 µM) | 0.5 µg/mL (≈ 1.26 µM) | – | 0.25 µg/mL (≈ 0.632 µM)
c1ccc2ccccc2c1 [NAPHTHALENE] | – | > 64 µg/mL | – | – | – | – | – | – | – | –
O=C(NC(Cn1ccnc1)C(=O)c1ccccc1)c1ccc2ccccc2c1 (configuration not stated) | – | 0.125 µg/mL (≈ 0.338 µM) | – | – | – | > 8 µg/mL | 0.5 µg/mL (≈ 1.35 µM) | 0.5 µg/mL (≈ 1.35 µM) | – | 0.25 µg/mL (≈ 0.677 µM)
O=C(/C=C/c1cccc2ccccc12)NCC(=O)c1ccccc1 | – | 8 µg/mL (≈ 25.4 µM) | – | – | – | – | – | – | – | –
O=C(/C=C/c1cccc2ccccc12)NC(C(=O)Nc1cccnc1)c1ccccc1 (configuration not stated) | – | 0.5 µg/mL (≈ 1.23 µM) | – | – | – | 4 µg/mL (≈ 9.82 µM) | 0.5 µg/mL (≈ 1.23 µM) | 0.5 µg/mL (≈ 1.23 µM) | – | 1 µg/mL (≈ 2.45 µM)
O=C(/C=C/c1cccc2ccccc12)NC(C(=O)Nc1ccncc1)c1ccccc1 (configuration not stated) | – | 0.5 µg/mL (≈ 1.23 µM) | – | – | – | > 8 µg/mL | 0.5 µg/mL (≈ 1.23 µM) | 0.5 µg/mL (≈ 1.23 µM) | – | 0.25 µg/mL (≈ 0.614 µM)
O=C(/C=C/c1ccc2ccccc2c1)NC(C(=O)Nc1cccnc1)c1ccccc1 (configuration not stated) | – | 0.5 µg/mL (≈ 1.23 µM) | – | – | – | 4 µg/mL (≈ 9.82 µM) | 0.25 µg/mL (≈ 0.614 µM) | 1 µg/mL (≈ 2.45 µM) | – | 0.25 µg/mL (≈ 0.614 µM)
O=C(/C=C/c1ccc2ccccc2c1)NC(C(=O)NCc1ccncc1)c1ccccc1 (configuration not stated) | – | 1 µg/mL (≈ 2.37 µM) | – | – | – | > 8 µg/mL | 1 µg/mL (≈ 2.37 µM) | 2 µg/mL (≈ 4.74 µM) | – | 1 µg/mL (≈ 2.37 µM)
